In PubChem BioAssay AID328 (DTP/NCI, 2004):
Toxic doses and inconclusive results are not listed. Rule for the calls: active = survival T/C of 150% or more; inactive = T/C below 125% in these data.

Tested on: BDF1 mice, P388 leukemia ip, median survival T/C
Test: NCI In Vivo Anticancer Drug Screen. Data for tumor model P388 Leukemia (intraperitoneal) in B6D2F1 (BDF1) mice
Settings: endpoint: median survival time, higher = longer survival
Procedure, shortened: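 T/C = treated-group survival ÷ vehicle-control survival; tumour transplanted into mice before dosing.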

[1] = dose: 25.0 mg/kg/injection, schedule: Q04DX003 (ip), vehicle: saline
[2] = dose: 100.0 mg/kg/injection, schedule: Q04DX003 (ip), vehicle: saline with Tween-80
[3] = dose: 200.0 mg/kg/injection, schedule: Q04DX003 (ip), vehicle: saline with Tween-80
[4] = dose: 50.0 mg/kg/injection, schedule: Q01DX009 (ip), vehicle: saline
[5] = dose: 25.0 mg/kg/injection, schedule: Q01DX009 (ip), vehicle: Klucel (hydroxypropylcellulose) (HPC)
[6] = dose: 50.0 mg/kg/injection, schedule: Q01DX009 (ip), vehicle: Klucel (hydroxypropylcellulose) (HPC)
[7] = dose: 100.0 mg/kg/injection, schedule: Q01DX009 (ip), vehicle: Klucel (hydroxypropylcellulose) (HPC)
[8] = dose: 100.0 mg/kg/injection, schedule: Q04DX003 (ip), vehicle: saline

Measured: T/C

C[N+]1=C2CCCC2=C(N)CC1
inactive: dose: 6.25 mg/kg/injection, schedule: Q01DX009 (ip), vehicle: saline 110 % of control | dose: 12.5 mg/kg/injection, schedule: Q01DX009 (ip), vehicle: saline 115 % of control | dose: 12.5 mg/kg/injection, schedule: Q04DX003 (ip), vehicle: saline 95 % of control | dose: 25.0 mg/kg/injection, schedule: Q01DX009 (ip), vehicle: saline 100 % of control | [1] 100 % of control

Cn1c(N)c(N=Cc2ccc(Cl)cc2)c(=O)n(C)c1=O
inactive: [2] 92 % of control | [3] 99 % of control

Oc1ccc(O)cc1
inactive: dose: 25.0 mg/kg/injection, schedule: Q04DX003 (ip), vehicle: Klucel (hydroxypropylcellulose) (HPC) 106 % of control | [4] 112 % of control | dose: 50.0 mg/kg/injection, schedule: Q04DX003 (ip), vehicle: Klucel (hydroxypropylcellulose) (HPC) 110 % of control | dose: 66.0 mg/kg/injection, schedule: Q01DX009 (ip), vehicle: saline 100 % of control | dose: 100.0 mg/kg/injection, schedule: Q04DX003 (ip), vehicle: Klucel (hydroxypropylcellulose) (HPC) 112 % of control

COc1ccccc1C(=O)c1ccccc1Cc1cccc2ccccc12
inactive: dose: 50.0 mg/kg/injection, schedule: Q01DX009 (ip), vehicle: saline with Tween-80 92 % of control | dose: 100.0 mg/kg/injection, schedule: Q01DX009 (ip), vehicle: saline with Tween-80 92 % of control | dose: 200.0 mg/kg/injection, schedule: Q01DX009 (ip), vehicle: saline with Tween-80 92 % of control | dose: 400.0 mg/kg/injection, schedule: Q01DX009 (ip), vehicle: saline with Tween-80 97 % of control

CC(C)(C)C1CC[N-]CC1.CC(C)(C)C1CC[N-]CC1.[Cl][Pt+2][Cl]
inactive: [5] 104 % of control | [6] 106 % of control | [7] 117 % of control | dose: 200.0 mg/kg/injection, schedule: Q01DX009 (ip), vehicle: Klucel (hydroxypropylcellulose) (HPC) 107 % of control

CCCN(CCC)CCC#N
inactive: dose: 50.0 mg/kg/injection, schedule: Q04DX003 (ip), vehicle: saline with Tween-80 104 % of control | [2] 100 % of control | [3] 90 % of control

O=C(O)C1CCC[N-]C1.O=C(O)C1CCC[N-]C1.O=C(O)C1CCC[N-]C1.O=C(O)C1CCC[N-]C1.[Cl][Rh][Cl] (stereo not given)
inactive: dose: 4.0 mg/kg/injection, schedule: Q01DX009 (ip), vehicle: saline 100 % of control | dose: 8.0 mg/kg/injection, schedule: Q01DX009 (ip), vehicle: saline 99 % of control | dose: 10.0 mg/kg/injection, schedule: Q01DX009 (ip), vehicle: saline 118 % of control | dose: 16.0 mg/kg/injection, schedule: Q01DX009 (ip), vehicle: saline 93 % of control | dose: 20.0 mg/kg/injection, schedule: Q01DX009 (ip), vehicle: saline 98 % of control | dose: 40.0 mg/kg/injection, schedule: Q01DX009 (ip), vehicle: saline 98 % of control | [4] 100 % of control | dose: 100.0 mg/kg/injection, schedule: Q01DX009 (ip), vehicle: saline 86 % of control | [8] 100 % of control | dose: 200.0 mg/kg/injection, schedule: Q04DX003 (ip), vehicle: saline 108 % of control | dose: 400.0 mg/kg/injection, schedule: Q04DX003 (ip), vehicle: saline 102 % of control

O=C(CS)OCCOC(=O)CS
inactive: [5] 104 % of control | [1] 109 % of control | [6] 100 % of control | dose: 50.0 mg/kg/injection, schedule: Q04DX003 (ip), vehicle: saline 104 % of control | [7] 95 % of control | [8] 95 % of control
